Assay results published in BindingDB's records for doi:10.1021/jm00102a019 (Oregon State University, 1993).

Molecular target: Delta-type opioid receptor (Cavia porcellus)
Assay: Tested for inhibitory effect on binding of [3H]DPDPE to opioid receptor delta in guinea pig cerebellum membranes

Row | SMILES | Ki [nM]
1 | CC[C@H](C)[C@H](NC(=O)[C@H](CCCNC(=N)N)NC(=O)[C@H](CCCNC(=N)N)NC(=O)[C@H](CC(C)C)NC(=O)[C@H](Cc1ccccc1)NC(=O)CNC(=O)CNC(=O)[C@H](Cc1ccc(O)cc1)NCC1CC1)C(=O)N[C@@H](CCCNC(=N)N)C(=O)N1CCC[C@@H]1C(=O)N[C@@H](CCCCN)C(=O)O | 558
2 | C=CCN(CC=C)[C@@H](Cc1ccc(O)cc1)C(=O)NCC(=O)NCC(=O)N[C@@H](Cc1ccccc1)C(=O)N[C@@H](CC(C)C)C(=O)N[C@@H](CCCNC(=N)N)C(=O)N[C@@H](CCCNC(=N)N)C(=O)N[C@H](C(=O)N[C@@H](CCCNC(=N)N)C(=O)N1CCC[C@@H]1C(=O)N[C@@H](CCCCN)C(=O)O)[C@@H](C)CC | 149
